Values after ≈ are worked out from the molar mass of the structure shown. “Also recorded” adds a separate entry of the source.
Columns and labels:
Solubility in water = format: physicochemical; conditions: aqueous buffer; Water pH 7.2 at 37° C.
[1] = tested on: human LINE-1 retrotransposon; assay: EGFP cell culture L1 retrotransposition assay in HeLa cells; format: cell-based; conditions: 7 days after transfection, flow cytometry
Description: These findings pave way for the rational re-design and improvement of nucleoside analogs as novel therapeutics. The enhanced green fluorescent protein (EGFP) cell culture L1 retrotransposition assay was performed in HeLa cells. […] Transfected cells were selected in puromycin. 7 days after transfection, cells that underwent retrotransposition (EGFP-positive) were assayed by flow cytometry. Cells were gated based on background fluorescence of plasmid JM111, which has two point mutations in L1-ORF1 that abolish retrotransposition. Data are normalized with RPS set to 1.

wild-type mice [2] = assay: pAlu-induced RPE degeneration, mouse model of dry AMD; format: in vivo; conditions: intraperitoneal 25 mg/kg twice daily
Description: Mouse studies were conducted to study treatment with NRTIs or derivatives.

wild-type mice [3] = assay: Laser-induced choroidal neovascularization (CNV; wet AMD) in wild-type mice; conditions: intravitreous 0.14 nmol; day 7; N=16
[4] = LogP, partition coefficient in 1-octanol; format: physicochemical; conditions: 1-octanol partition
Caspase-1 [5] = assay: iGLuc luminescence assay of ATP-induced Caspase-1 activation in J774 iGLuc cells; format: cell-based, mouse; conditions: for Caspase-1 cleavage (luminescence): ATP 5 mM, drug 1 nM-100 μM, N=3; for reduction of inflammasome activation: ATP (5 mM), mouse J774 iGLuc cells, FIGS. 70-73
Description: Caspase-1 is the enzyme at the core of the inflammasome complex and is an important danger response signal and mediator of RPE cell death in AMD. […] Importantly, there was some difference between individual compounds in terms of the dose response curve, emphasizing the need to test each compound (with unique R group(s)) individually.
To obtain the data set forth in FIGS. 64-73, an iGLuc assay was conducted (modified from Bartok et al. iGLuc: a luciferase-based inflammasome and protease activity reporter. Nature Methods 2013; 10(2):147-54). Briefly, 100,000 iGLuc cells per well were plated in a 96 well plate overnight. The next morning, media is aspirated from the plate and replaced with 75 μL of serum free DMEM with drugs (NRTIs or modified NRTIs) for 30 min. After 30 minutes of drug exposure, 20 mM ATP (25 μL) is added for a final concentration of 5 mM. 50 μL of media from each well is collected and 50 μL of coelenterazine 4.4 μM is added to each sample, and luminescence is read immediately.

Caspase-1 [6] = assay: Alu RNA-induced Caspase-1 activation, western blot, primary human RPE cells; format: cell-based
Excerpt: The bottom row in FIG. 5 is a vinculin loading control.

mtDNA = assay: Relative quantity of mtDNA, quantitative PCR, primary human RPE cells; conditions: 50 μM; four days; relative to DMSO
[7] = tested on: GFP-expressing lentivirus; assay: GFP-expressing lentivirus transduction/replication assay in HeLa cells; format: cell-based; conditions: 10 μM; 72 hours; MOI 20
Description: All drugs were added at a concentration of 10 μM. Cells were imaged for GFP expression 72 hours after addition of lentivirus. GFP-positive cells per field of view were recorded. n=4-11, error bars S.E.M. Reverse transcription of lentivirus is essential for GFP expression; modified NRTIs should not block reverse transcriptase, whereas NRTIs are known to block reverse transcriptase.
The present disclosure further provides the results of additional experiments in FIG. 21-FIG. 23.

Caspase-1 [8] = assay: Iron (III) ammonium citrate-induced Caspase-1 activation, western blot, primary human RPE cells; format: cell-based; conditions: Fe(III) ammonium citrate (100 μM)
Excerpt: Caspase-1 activation (p20 subunit) in primary human retinal pigment epithelium (RPE) cells in the presence of iron (III) ammonium citrate was studied.
Caspase-1 activation (p10 subunit) in primary human RPE cells in the presence of iron (III) ammonium citrate was studied.
Alu RNA is a toxic endogenous retroelement that accumulates in and causes death of the RPE in patients with dry AMD. […] FAC activates Caspase-1 via an Alu RNA intermediate, and induces NLRP3-dependent RPE degeneration (Gelfand et al. Cell Reports 2015). Fe(III) ammonium citrate (100 μM)-induced Caspase-1 activation in primary human RPE cells, monitored by western blotting, is reduced by TM-3TC (25 μM), d4T-ene (25 μM), 2Me-d4T (25 μM), Me-AZT (25-100 μM), and 2Me-AZT (25 μM). N=3-4.

human P2X7 receptor = target: T1, human P2X7 receptor (Homo sapiens, UniProt Q99572); conditions: 64 μM drug; bzATP 100 μM; n=12
T1 sequence (Q99572 1-595): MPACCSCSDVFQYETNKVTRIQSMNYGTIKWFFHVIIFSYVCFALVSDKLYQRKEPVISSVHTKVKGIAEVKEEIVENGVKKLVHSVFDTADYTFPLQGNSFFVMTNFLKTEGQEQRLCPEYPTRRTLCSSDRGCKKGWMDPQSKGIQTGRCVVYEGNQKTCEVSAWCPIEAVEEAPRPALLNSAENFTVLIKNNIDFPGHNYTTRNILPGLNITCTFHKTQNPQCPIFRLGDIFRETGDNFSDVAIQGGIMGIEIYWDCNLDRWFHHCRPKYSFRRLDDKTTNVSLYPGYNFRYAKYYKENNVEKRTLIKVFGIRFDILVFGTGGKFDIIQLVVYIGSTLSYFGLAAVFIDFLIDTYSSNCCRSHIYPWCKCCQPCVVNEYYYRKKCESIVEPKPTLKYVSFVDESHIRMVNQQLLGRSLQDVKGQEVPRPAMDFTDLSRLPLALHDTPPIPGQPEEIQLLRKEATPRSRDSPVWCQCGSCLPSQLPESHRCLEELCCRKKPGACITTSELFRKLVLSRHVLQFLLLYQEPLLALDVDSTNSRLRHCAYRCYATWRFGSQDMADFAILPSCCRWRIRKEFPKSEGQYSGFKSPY

wild-type mice [9] = assay: Alu RNA-induced RPE degeneration, mouse model of dry AMD; conditions: intraperitoneal 25 mg/kg, twice daily for 6 days
IL-1 beta = assay: MSU-induced IL-1 beta secretion from PMA-differentiated THP-1 monocytes, ELISA; format: cell-based, human; conditions: 25-1000 uM
Excerpt: Human THP-1 monocytes were differentiated into macrophages with PMA.
To illustrate this, human THP-1 monocytes were differentiated into macrophages with PMA. Treatment with MSU increased IL-1 beta secretion compared to non-treated cells. […]

Caspase-1 [10] = assay: LPS/ATP-induced Caspase-1 activation, mouse bone marrow-derived macrophages, western blot; conditions: 100 uM; cell culture supernatants
IL-18 = assay: LPS/ATP-induced IL-18 maturation, mouse bone marrow-derived macrophages; format: cell-based; conditions: 100 uM; cell culture supernatants

Compound | solubility (Solubility in water) [µg/mL] | L1 retrotransposition (EGFP-positive cells) [1] | pAlu-induced RPE degeneration (wild-type mice [2]) | logP [4] | Caspase-1 cleavage (luminescence) (Caspase-1 [5]) | other results
CCOC[C@H]1O[C@@H](n2ccc(N(CC)CC)nc2=O)CS1 (stereo in doubt) [Kamuvudine 3Et-3TC, 4-(diethylamino)-1-[2-(ethoxymethyl)-1,3-oxathiolan-5-yl]-1,2-dihydropyrimidin-2-one] | 1600 (≈ 5.1 mM) | some residual interference with natural L1 activity | protects against RPE degeneration | 1.16 | reduces Caspase-1 cleavage in a dose-dependent fashion | choroidal neovascularization (CNV) volume (wild-type mice [3]): reduced choroidal neovascularization (CNV) volume
CCOC[C@H]1O[C@@H](n2cc(C)c(=O)n(CC)c2=O)C[C@@H]1N=[N+]=[N-] [Kamuvudine 2Et-AZT, 1-[(2R,4S,5 S)-4-azido-5-(ethoxymethyl)oxolan-2-yl]-3-ethyl-5-methyl-1,2,3,4-tetrahydropyrimidine-2,4-dione] | 10 (≈ 0.0309 mM) | no effect on L1 activity | protects against RPE degeneration | 1.17 | reduces Caspase-1 cleavage in a dose-dependent fashion | choroidal neovascularization (CNV) volume (wild-type mice [3]): reduced choroidal neovascularization (CNV) volume
CCOC[C@@H]1C=C[C@H](n2cc(C)c(=O)n(CC)c2=O)O1 [Kamuvudine 2Et-d4T, 1-[(2R,5 S)-5-(ethoxymethyl)-2,5-dihydrofuran-2-yl]-3-ethyl-5-methyl-1,2,3,4-tetrahydropyrimidine-2,4-dione] | 90 (≈ 0.321 mM) | no effect on L1 activity | protects against RPE degeneration | 1.35 | reduces Caspase-1 cleavage in a dose-dependent fashion | Alu RNA induced Caspase-1 activation (Caspase-1 [6]; 25 μM, N=3-4): reduced; reduction of inflammasome activation (Caspase-1 [5]): about 45%
COC[C@H]1O[C@@H](n2cc(C)c(=O)n(C)c2=O)C[C@@H]1N=[N+]=[N-] [Kamuvudine 2Me-AZT, 1-[(2R,4S,5S)-4-azido-5-(methoxymethyl)oxolan-2-yl]-3,5-dimethyl-1,2,3,4-tetrahydropyrimidine-2,4-dione] | 940 (≈ 3.18 mM) | no effect on L1 activity | restored to healthy RPE morphology/intercellular junctions | 0.45 | reduces Caspase-1 cleavage in a dose-dependent fashion | relative quantity of mtDNA (mtDNA depletion) (mtDNA): do not exhibit mtDNA depletion; lentivirus replication (GFP-positive cells per field) [7]: do not block lentivirus replication; Alu RNA induced Caspase-1 activation (Caspase-1 [6]; 25 μM, N=3-4): reduced; iron-induced Caspase-1 activation (Caspase-1 [8]; 25 μM): reduced
Clc1cccc(-c2nnnn2Cc2cccnc2)c1Cl [Kamuvudine A438079] |  |  |  |  |  | P2X7-mediated YO-PRO-1 dye uptake induced by bzATP (human P2X7 receptor): inhibited
COCC1O[C@@H](n2cc(C)c(=O)[nH]c2=O)CC1N=[N+]=N (stereo partly drawn) [Me-AZT, 1-[(5R)-2-(methoxymethyl)-5-(5-methyl-2,4-dioxo-1,2,3,4-tetrahydropyrimidin-1-yl)oxolan-3-yl]triaza-1,2-dien-2-ium] |  | no effect on L1 activity | restored to healthy RPE morphology/intercellular junctions |  |  | relative quantity of mtDNA (mtDNA depletion) (mtDNA): do not exhibit mtDNA depletion; lentivirus replication (GFP-positive cells per field) [7]: do not block lentivirus replication; iron-induced Caspase-1 activation (Caspase-1 [8]; 25-100 μM): reduced
CCn1c(=O)c(C)cn([C@H]2C=C[C@@H](COC)O2)c1=O [O-Me N-Et d4T, 3-ethyl-1-[(2R,5S)-5-(methoxymethyl)-2,5-dihydrofuran-2-yl]-5-methyl-1,2,3,4-tetrahydropyrimidine-2,4-dione] | 1500 (≈ 5.63 mM) |  |  | 0.99 | reduces Caspase-1 cleavage in a dose-dependent fashion | Alu RNA induced Caspase-1 activation (Caspase-1 [6]; 25 μM, N=3-4): reduced; Alu RNA-induced RPE degeneration (wild-type mice [9]): protects against Alu RNA-induced RPE degeneration; choroidal neovascularization (CNV) volume (wild-type mice [3]): reduced choroidal neovascularization (CNV) volume; reduction of inflammasome activation (Caspase-1 [5]): about 55%
Clc1ccc(C(c2ccc(Cl)cc2)n2cc[n+](CC(OCc3ccc(Cl)cc3Cl)c3ccc(Cl)cc3Cl)c2)cc1 (centres unmarked) [calmidazolium, reference compound] |  |  |  |  |  | Alu RNA-induced Caspase-1 activation/cleavage (Caspase-1 [6]; concentration not given): not inhibited
Nc1ncnc2c1ncn2[C@@H]1O[C@H](CO)C[C@H]1O [cordycepin] |  |  |  |  |  | Alu RNA-induced Caspase-1 maturation (Caspase-1 [6]; 50-100 uM, 24 hours after Alu administration): blocked; IL-1beta secretion induced by MSU (IL-1 beta): did not significantly affect IL-1beta secretion; Caspase-1 activation (active p20 band) induced by LPS/ATP (Caspase-1 [10]): inhibit Caspase-1 activation; IL-18 maturation induced by LPS/ATP (IL-18): inhibit
C=C1C=C[C@H](n2cc(C)c(=O)[nH]c2=O)O1 [d4T-ene] |  |  |  |  |  | Alu RNA induced Caspase-1 activation (Caspase-1 [6]; 25-100 μM (25 and 100 μM)): blocked Alu-induced Caspase-1 activation; also recorded: reduced; iron-induced Caspase-1 activation (Caspase-1 [8]; 25 μM): blocked iron-induced Caspase-1 activation; also recorded: reduced
Nc1ccn([C@@H]2CS[C@H](CO)O2)c(=O)n1 [reference compound] | 64000 (≈ 279 mM) |  |  | -1.1 |  | 

Source: US11219623B2, “Inflammasome inhibition for the treatment of Parkinson's disease, Alzheimer's disease and multiple sclerosis” (University of Kentucky Research Foundation, priority 2015, dated 2022)
